Source: ChEMBL document CHEMBL1130186, “Potent alpha 4 beta 1 peptide antagonists as potential anti-inflammatory agents” (J Med Chem, 1997)
*1 amine or outer side, *2 acyl side, *3 side chain or, on linkers, in order; H or OH if unused. Where a SMILES comes first, the peptide text is derived from it. Bridges are numbered along the chain shown (N, C = ends). [ ]: non-standard residue; d: D form. The star is where a group is joined. X5 = O=C([C@H](Cc1c(F)c(F)c(O)c(F)c1F)N[*:1])[*:2]; X7 = O=C([C@H]1[C@@H](c2ccc(O)cc2)CCN1[*:1])[*:2]; X3 = O=C([C@H]1[C@H](c2ccc(O)cc2)CCN1[*:1])[*:2]; Fluorene(1-CO) = O=C(c1cccc2c1Cc1ccccc1-2)*; Tyr(3-Cl) = N[C@@H](Cc1ccc(O)c(Cl)c1)C(=O)O; Phenylacetyl(4-OMe) = COc1ccc(CC(=O)*)cc1; Tyr(3-F) = N[C@@H](Cc1ccc(O)c(F)c1)C(=O)O; Tyr(3-I) = N[C@@H](Cc1ccc(O)c(I)c1)C(=O)O; X1 = O=C(C(Cc1ccc(O)cc1)c1ccccc1)*; 1Naphthoyl = O=C(c1cccc2ccccc12)*; X4 = O=C(c1ccc(-c2ccc(O)cc2)cc1)*; Hyp = O=C(O)[C@@H]1C[C@@H](O)CN1; Cha = N[C@@H](CC1CCCCC1)C(=O)O; Aic = NC1(C(=O)O)Cc2ccccc2C1; Chg = N[C@H](C(=O)O)C1CCCCC1; Phg = N[C@H](C(=O)O)c1ccccc1; 3Amb = NCc1cccc(C(=O)O)c1; 4Amb = NCc1ccc(C(=O)O)cc1; Pip = O=C(O)[C@@H]1CCCCN1; 3Abz = Nc1cccc(C(=O)O)c1; 4Abz = Nc1ccc(C(=O)O)cc1; Inp = O=C(O)C1CCNCC1; Bz = O=C(c1ccccc1)*; βAla = NCCC(=O)O; Sar = CNCC(=O)O

Tests used:
Integrin alpha-4/beta-1 [1] = molecular target: T1, Integrin alpha-4/beta-1 (Homo sapiens, UniProt P05556+P13612); experiment: Inhibition of fluorescently labeled alpha4-beta1 positive Ramos cells binding to immobilized VCAM-1.; format: cell-based
Integrin alpha-4/beta-1 [2] = molecular target: T1, Integrin alpha-4/beta-1; experiment: Inhibition of purified alpha-4 beta-1 binding to VCAM-1 was determined in an ELISA assay.; format: protein-complex assay

T1 sequence (P05556 whole entry): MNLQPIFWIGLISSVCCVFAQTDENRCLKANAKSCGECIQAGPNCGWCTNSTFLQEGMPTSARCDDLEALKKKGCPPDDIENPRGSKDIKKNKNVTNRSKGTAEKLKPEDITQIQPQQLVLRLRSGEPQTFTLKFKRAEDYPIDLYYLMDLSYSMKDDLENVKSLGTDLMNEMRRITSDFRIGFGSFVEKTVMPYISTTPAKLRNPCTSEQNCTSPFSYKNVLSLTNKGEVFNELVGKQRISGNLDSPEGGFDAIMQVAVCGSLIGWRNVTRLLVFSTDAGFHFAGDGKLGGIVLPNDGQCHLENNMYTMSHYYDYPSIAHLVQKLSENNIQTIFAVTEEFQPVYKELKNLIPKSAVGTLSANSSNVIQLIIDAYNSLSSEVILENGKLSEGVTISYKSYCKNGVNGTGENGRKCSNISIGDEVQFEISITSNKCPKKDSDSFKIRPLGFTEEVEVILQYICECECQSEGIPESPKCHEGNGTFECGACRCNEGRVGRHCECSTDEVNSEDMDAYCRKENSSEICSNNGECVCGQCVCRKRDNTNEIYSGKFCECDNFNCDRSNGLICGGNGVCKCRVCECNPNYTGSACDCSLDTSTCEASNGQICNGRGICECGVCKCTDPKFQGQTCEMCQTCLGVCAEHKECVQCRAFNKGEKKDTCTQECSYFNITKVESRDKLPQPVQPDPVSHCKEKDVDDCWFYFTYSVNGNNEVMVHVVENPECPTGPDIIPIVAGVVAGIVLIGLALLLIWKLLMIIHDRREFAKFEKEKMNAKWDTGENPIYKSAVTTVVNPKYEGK
T1 sequence (P13612 whole entry): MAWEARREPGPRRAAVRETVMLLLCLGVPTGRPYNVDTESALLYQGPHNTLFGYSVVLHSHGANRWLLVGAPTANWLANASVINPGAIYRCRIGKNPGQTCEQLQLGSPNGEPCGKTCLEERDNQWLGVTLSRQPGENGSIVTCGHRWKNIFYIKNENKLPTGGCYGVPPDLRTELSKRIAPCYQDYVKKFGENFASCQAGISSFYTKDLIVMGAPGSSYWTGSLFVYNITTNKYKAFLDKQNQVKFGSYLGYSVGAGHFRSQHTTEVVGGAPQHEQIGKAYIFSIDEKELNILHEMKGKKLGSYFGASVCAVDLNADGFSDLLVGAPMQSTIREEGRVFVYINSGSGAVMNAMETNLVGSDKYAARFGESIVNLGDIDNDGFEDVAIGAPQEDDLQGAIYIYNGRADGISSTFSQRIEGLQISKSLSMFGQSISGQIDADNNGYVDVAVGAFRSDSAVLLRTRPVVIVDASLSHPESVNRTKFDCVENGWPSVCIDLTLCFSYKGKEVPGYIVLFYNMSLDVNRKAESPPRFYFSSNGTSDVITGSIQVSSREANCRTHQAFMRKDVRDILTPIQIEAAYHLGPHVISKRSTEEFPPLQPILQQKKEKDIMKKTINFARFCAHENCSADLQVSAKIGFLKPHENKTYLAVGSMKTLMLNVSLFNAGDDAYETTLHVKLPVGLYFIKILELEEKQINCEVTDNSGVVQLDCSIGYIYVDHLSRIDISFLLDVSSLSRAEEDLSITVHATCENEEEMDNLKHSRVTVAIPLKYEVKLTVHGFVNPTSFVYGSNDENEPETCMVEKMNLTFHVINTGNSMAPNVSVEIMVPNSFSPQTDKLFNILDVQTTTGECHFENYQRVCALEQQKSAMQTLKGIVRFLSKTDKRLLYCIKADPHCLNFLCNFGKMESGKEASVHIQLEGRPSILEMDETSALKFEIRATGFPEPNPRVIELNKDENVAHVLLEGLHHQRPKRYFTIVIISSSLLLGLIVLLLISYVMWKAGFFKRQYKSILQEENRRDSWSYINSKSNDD

Row | Structure (SMILES) | IC50 (Integrin alpha-4/beta-1 [1]) | IC50 (Integrin alpha-4/beta-1 [2])
1 | O=C(N[C@H]1CSSC[C@@H](C(=O)O)NC(=O)[C@@H]2CCCN2C(=O)[C@H](CO)NC1=O)c1ccc(-c2ccc(O)cc2)cc1 (X4-CSPC-OH; disulfide 1-4) | 120000 nM | 1650 nM
2 | CC(=O)N[C@@H](Cc1ccc(O)cc1)C(=O)N[C@H]1CSSC[C@@H](C(=O)O)NC(=O)[C@@H]2CCCCN2C(=O)[C@H](C)NC1=O (Ac-YCA[Pip]C-OH; disulfide 2-5) | 20 nM | 1 nM
3 | CC(=O)N[C@@H](Cc1ccc(O)cc1)C(=O)N[C@H]1CSSC[C@@H](C(=O)O)NC(=O)CN(C)C(=O)[C@H](C)NC1=O (Ac-YCA[Sar]C-OH; disulfide 2-5) |  | 710 nM
4 | O=C(N[C@H]1CSSC[C@@H](C(=O)O)NC(=O)[C@@H]2CCCN2C(=O)[C@H](CO)NC1=O)c1ccccc1 (Bz-CSPC-OH; disulfide 1-4) | 1900 nM | 134 nM
5 | CC(=O)N[C@@H](Cc1ccc(O)cc1)C(=O)N[C@H]1CSSC[C@@H](C(=O)O)NC(=O)[C@@H]2CCCN2C(=O)[C@H]([C@@H](C)O)NC1=O (Ac-YCTPC-OH; disulfide 2-5) | 320 nM | 5 nM
6 | N[C@H](Cc1ccc(O)cc1)C(=O)N[C@H]1CSSC[C@@H](C(=O)O)NC(=O)[C@@H]2CCCN2C(=O)[C@H](CO)NC1=O | 126000 nM | 890 nM
7 | C[C@H](NC(=O)[C@@H](N)Cc1ccc(O)cc1)C(=O)N[C@H]1CSSC[C@@H](C(=O)O)NC(=O)[C@@H]2CCCN2C(=O)[C@H](CC(=O)O)NC1=O (H-YACDPC-OH; disulfide 3-6) | 5000 nM | 210 nM
8 | N=C(N)NCCC[C@H](NC(=O)[C@@H](N)Cc1ccc(O)cc1)C(=O)N[C@H]1CSSC[C@@H](C(=O)O)NC(=O)[C@@H]2CCCN2C(=O)[C@H](CC(N)=O)NC1=O (H-YRCNPC-OH; disulfide 3-6) | 7000 nM | 40 nM
9 | CC(=O)N[C@@H](Cc1ccc(O)cc1)C(=O)N[C@H]1CSSC[C@@H](C(=O)O)NC(=O)[C@H](c2ccccc2)NC(=O)[C@H](C)NC1=O (Ac-YCA[Phg]C-OH; disulfide 2-5) | 33000 nM | 76 nM
10 | CC(=O)N1CC[C@@H](c2ccc(O)cc2)[C@@H]1C(=O)N[C@H]1CSSC[C@@H](C(=O)O)NC(=O)[C@@H]2CCCN2C(=O)[C@H](CO)NC1=O (Ac-[X3]CSPC-OH; disulfide 2-5) | 8 nM | 0.5 nM
11 | C[C@@H]1NC(=O)[C@@H](NC(=O)[C@@H](N)Cc2ccc(O)cc2)CSSC[C@@H](C(=O)O)NC(=O)[C@H](Cc2ccccc2)NC1=O (H-YCAFC-OH; disulfide 2-5) | 182000 nM | 2800 nM
12 | CC(C)C[C@@H]1NC(=O)[C@H](C)NC(=O)[C@@H](NC(=O)[C@@H](N)Cc2ccc(O)cc2)CSSC[C@@H](C(=O)O)NC1=O (H-YCALC-OH; disulfide 2-5) | 10500 nM | 34 nM
13 | O=C(N[C@H]1CSSC[C@@H](C(=O)O)NC(=O)[C@@H]2CCCN2C(=O)[C@H](CO)NC1=O)C(Cc1ccc(O)cc1)c1ccccc1 (some centres undefined) (X1-CSPC-OH; disulfide 1-4) | 2000 nM | 13 nM
14 | N[C@@H](Cc1ccc(O)cc1)C(=O)N[C@H]1CSSC[C@@H](C(=O)O)NC(=O)C2CCN(CC2)C1=O (H-YC[Inp]C-OH; disulfide 2-4) | 1500 nM | 31 nM
15 | NC(N)=NCCC[C@H](NC(=O)[C@@H](N)Cc1ccc(O)cc1)C(=O)N[C@H]1CSSC[C@@H](C(=O)O)NC(=O)[C@@H]2CCCN2C(=O)[C@H](CC(=O)O)NC1=O (H-YRCDPC-OH; disulfide 3-6) | 6000 nM | 110 nM
16 | COc1ccc(CC(=O)N[C@H]2CSSC[C@@H](C(=O)O)NC(=O)[C@@H]3CCCN3C(=O)[C@H](CO)NC2=O)cc1 ({Phenylacetyl(4-OMe)}-CSPC-OH; disulfide 1-4) | 3000 nM | 250 nM
17 | N[C@@H](Cc1c(F)c(F)c(O)c(F)c1F)C(=O)N[C@H]1CSSC[C@@H](C(=O)O)NC(=O)[C@@H]2CCCN2C(=O)[C@H](CO)NC1=O (H-[X5]CSPC-OH; disulfide 2-5) | 60000 nM | 530 nM
18 | N=C(N)NCCC[C@H](NC(=O)[C@@H](N)Cc1ccc(O)cc1)C(=O)N[C@H]1CSSC[C@@H](C(=O)O)NC(=O)[C@@H]2CCCN2C(=O)[C@H](CCC(N)=O)NC1=O (H-YRCQPC-OH; disulfide 3-6) | 9000 nM | 50 nM
19 | NC(=O)[C@@H]1CSSC[C@H](NC(=O)[C@@H](N)Cc2ccc(O)cc2)C(=O)Nc2cccc(c2)C(=O)N1 (H-YC[3Abz]C-NH2; disulfide 2-4) |  | 12000 nM
20 | N[C@@H](Cc1ccc(O)cc1)C(=O)N[C@H]1CSSC[C@@H](C(=O)O)NC(=O)c2ccc(cc2)NC1=O (H-YC[4Abz]C-OH; disulfide 2-4) | 4200 nM | 160 nM
21 | N[C@@H](Cc1ccc(O)cc1)C(=O)N[C@H]1CSSC[C@@H](C(=O)O)NC(=O)c2cccc(c2)CNC1=O (H-YC[3Amb]C-OH; disulfide 2-4) | 210000 nM | 6000 nM
22 | N[C@@H](Cc1ccc(O)c(Cl)c1)C(=O)N[C@H]1CSSC[C@@H](C(=O)O)NC(=O)[C@@H]2CCCN2C(=O)[C@H](CO)NC1=O (H-[Tyr(3-Cl)]CSPC-OH; disulfide 2-5) | 600 nM | 7 nM
23 | CC(C)C[C@H](N)C(=O)N[C@@H](CCCNC(=N)N)C(=O)N[C@H]1CSSC[C@@H](C(=O)O)NC(=O)[C@@H]2CCCN2C(=O)[C@H](CC(=O)O)NC1=O (H-LRCDPC-OH; disulfide 3-6) | 250000 nM | 21000 nM

Row | Structure (SMILES) | IC50 (Integrin alpha-4/beta-1 [1]) | IC50 (Integrin alpha-4/beta-1 [2])
24 | C[C@@H]1NC(=O)[C@@H](NC(=O)[C@@H](N)Cc2ccc(O)cc2)CSSC[C@@H](C(=O)O)NC(=O)[C@H](C2CCCCC2)NC1=O (H-YCA[Chg]C-OH; disulfide 2-5) |  | 230 nM
25 | CC(=O)N1CC[C@H](c2ccc(O)cc2)[C@@H]1C(=O)N[C@H]1CSSC[C@@H](C(=O)O)NC(=O)[C@@H]2CCCN2C(=O)[C@H](CO)NC1=O (Ac-[X7]CSPC-OH; disulfide 2-5) |  | 4 nM
26 | CC(=O)N[C@@H](Cc1ccc(O)cc1)C(=O)N[C@H]1CSSC[C@@H](C(=O)O)NC(=O)[C@@H]2CCCN2C(=O)[C@H](Cc2ccc(O)cc2)NC1=O (Ac-YCYPC-OH; disulfide 2-5) | 230 nM | 3 nM
27 | O=C(N[C@H]1CSSC[C@@H](C(=O)O)NC(=O)[C@@H]2CCCN2C(=O)[C@H](CO)NC1=O)c1cccc2ccccc12 (1Naphthoyl-CSPC-OH; disulfide 1-4) | 6300 nM | 97 nM
28 | O=C(N[C@H]1CSSC[C@@H](C(=O)O)NC(=O)[C@@H]2CCCN2C(=O)[C@H](CO)NC1=O)c1cccc2c1Cc1ccccc1-2 ({Fluorene(1-CO)}-CSPC-OH; disulfide 1-4) | 1500 nM | 140 nM
29 | C[C@@H]1NC(=O)[C@@H](NC(=O)[C@@H](N)Cc2ccc(O)cc2)CSSC[C@@H](C(=O)O)NC1=O (H-YCAC-OH; disulfide 2-4) | 350000 nM | 9400 nM
30 | N[C@@H](Cc1ccc(O)c(F)c1)C(=O)N[C@H]1CSSC[C@@H](C(=O)O)NC(=O)[C@@H]2CCCN2C(=O)[C@H](CO)NC1=O (H-[Tyr(3-F)]CSPC-OH; disulfide 2-5) | 500 nM | 8 nM
31 | C[C@@H]1NC(=O)[C@@H](NC(=O)[C@@H](N)Cc2ccc(O)cc2)CSSC[C@@H](C(=O)O)NC(=O)C2(Cc3ccccc3C2)NC1=O (H-YCA[Aic]C-OH; disulfide 2-5) |  | 36000 nM
32 | N[C@@H](Cc1ccc(O)cc1)C(=O)N[C@H]1CSSC[C@@H](C(=O)O)NC(=O)[C@H](C2CCCCC2)NC1=O (H-YC[Chg]C-OH; disulfide 2-4) |  | 115000 nM
33 | N[C@@H](Cc1ccc(O)cc1)C(=O)N[C@H]1CSSC[C@@H](C(=O)O)NC(=O)CCNC1=O (H-YC[βAla]C-OH; disulfide 2-4) | 210000 nM | 4200 nM
34 | N[C@@H](Cc1ccc(O)cc1)C(=O)N[C@H]1CSSC[C@@H](C(=O)O)NC(=O)c2ccc(cc2)CNC1=O (H-YC[4Amb]C-OH; disulfide 2-4) | 15000 nM | 420 nM
35 | CC[C@H](C)[C@@H]1NC(=O)[C@H](C)NC(=O)[C@@H](NC(=O)[C@@H](N)Cc2ccc(O)cc2)CSSC[C@@H](C(=O)O)NC1=O (H-YCAIC-OH; disulfide 2-5) | 940 nM | 23 nM
36 | N[C@@H](Cc1ccc(O)c(I)c1)C(=O)N[C@H]1CSSC[C@@H](C(=O)O)NC(=O)[C@@H]2CCCN2C(=O)[C@H](CO)NC1=O (H-[Tyr(3-I)]CSPC-OH; disulfide 2-5) | 200 nM | 4 nM
37 | C[C@@H]1NC(=O)[C@@H](NC(=O)[C@@H](N)Cc2ccc(O)cc2)CSSC[C@@H](C(=O)O)NC(=O)[C@@H]2C[C@@H](O)CN2C1=O (H-YCA[Hyp]C-OH; disulfide 2-5) |  | 5 nM
38 | CC(=O)N[C@@H](Cc1ccc(O)cc1)C(=O)N[C@H]1CSSC[C@@H](C(=O)O)NC(=O)[C@@H]2CCCN2C(=O)[C@H](C)NC1=O (Ac-YCAPC-OH; disulfide 2-5) | 310 nM | 4 nM
39 | C[C@@H]1NC(=O)[C@@H]2CCCN2C(=O)[C@@H](NC(=O)[C@@H](N)Cc2ccc(O)cc2)CSSC[C@@H](C(=O)O)NC1=O (H-YCPAC-OH; disulfide 2-5) | 14000 nM | 230 nM
40 | O=C(N[C@H]1CSSC[C@@H](C(=O)O)NC(=O)[C@@H]2CCCN2C(=O)[C@H](CO)NC1=O)C1CCNCC1 (H-[Inp]CSPC-OH; disulfide 2-5) | 50000 nM | 4600 nM
41 | C[C@@H]1NC(=O)[C@@H](NC(=O)[C@@H](N)Cc2ccc(O)cc2)CSSC[C@@H](C(=O)O)NC(=O)[C@@H]2CCCN2C1=O (H-YCAPC-OH; disulfide 2-5) | 120 nM | 5 nM
42 | N[C@@H](Cc1ccc(O)cc1)C(=O)N[C@H]1CSSC[C@@H](C(=O)O)NC(=O)[C@H](CC2CCCCC2)NC1=O (H-YC[Cha]C-OH; disulfide 2-4) |  | 18000 nM
43 | CC(=O)N[C@@H](Cc1ccc(O)cc1)C(=O)N[C@H]1CSSC[C@@H](C(=O)O)NC(=O)CNC(=O)[C@H](C)NC1=O (Ac-YCAGC-OH; disulfide 2-5) |  | 22000 nM
44 | CC(=O)N[C@@H](Cc1ccc(O)cc1)C(=O)N[C@H]1CSSC[C@@H](C(N)=O)NC(=O)[C@@H]2CCCN2C(=O)[C@H](C)NC1=O (Ac-YCAPC-NH2; disulfide 2-5) |  | 320 nM
45 | NC(=O)[C@@H]1CSSC[C@H](NC(=O)[C@@H](N)CCCN=C(N)N)C(=O)N[C@@H](CC(=O)O)C(=O)N2CCC[C@H]2C(=O)N1 (H-RCDPC-NH2; disulfide 2-5) |  | 50000 nM
